Experimental data from PubChem BioAssay (NCI).
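In this assay, cells in 96-well plates receive the compound at five concentrations for 48 hours. Endpoints are linearly interpolated between the surrounding concentrations. TGI: total growth inhibition.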

Assays:
Experiment in all cases: NCI anticancer screen, dose series, 48 h
OVCAR-4 ovarian = tested on: OVCAR-4 ovarian
M14 melanoma = tested on: M14 melanoma
SK-MEL-28 melanoma = tested on: SK-MEL-28 melanoma
SK-MEL-5 melanoma = tested on: SK-MEL-5 melanoma
RPMI-8226 leukemia = tested on: RPMI-8226 leukemia
NCI-H522 lung = tested on: NCI-H522 lung
SF-268 CNS = tested on: SF-268 CNS
KM20L2 colon = tested on: KM20L2 colon
KM12 colon = tested on: KM12 colon
SW-620 colon = tested on: SW-620 colon
UACC-62 melanoma = tested on: UACC-62 melanoma
SN12C renal = tested on: SN12C renal
CCRF-CEM leukemia = tested on: CCRF-CEM leukemia
OVCAR-8 ovarian = tested on: OVCAR-8 ovarian
NCI-H460 lung = tested on: NCI-H460 lung
SF-295 CNS = tested on: SF-295 CNS
SNB-75 CNS = tested on: SNB-75 CNS
HS 578T breast = tested on: HS 578T breast
MDA-MB-435 = tested on: MDA-MB-435
MDA-MB-231 breast = tested on: MDA-MB-231 breast

Compound | TGI (OVCAR-4 ovarian) [µM] | TGI (M14 melanoma) [µM] | TGI (SK-MEL-28 melanoma) [µM] | TGI (SK-MEL-5 melanoma) [µM] | TGI (RPMI-8226 leukemia) [µM] | TGI (NCI-H522 lung) [µM] | TGI (SF-268 CNS) [µM] | TGI (KM20L2 colon) [µM] | TGI (KM12 colon) [µM] | TGI (SW-620 colon) [µM] | TGI (UACC-62 melanoma) [µM] | TGI (SN12C renal) [µM] | TGI (CCRF-CEM leukemia) [µM] | TGI (OVCAR-8 ovarian) [µM] | TGI (NCI-H460 lung) [µM] | TGI (SF-295 CNS) [µM] | TGI (SNB-75 CNS) [µM] | TGI (HS 578T breast) [µM] | TGI (MDA-MB-435) [µM] | TGI (MDA-MB-231 breast) [µM]
CCCCNC(=O)CCN(C(=O)O)S(=O)(=O)c1ccc(NC(=O)c2ccccc2)cc1 | > 100 | > 100 | > 100 | > 100 | > 100 | > 100 | > 100 | > 100 | > 100 | 29.2 | > 100 | > 100 | > 100 | > 100 | > 100 | > 100 | > 100 | – | – | –
CCCCCCCCCCCC(O)=C1C(=O)CC(O)CC1=O (centres undefined) | > 100 | > 100 | > 100 | > 100 | > 100 | > 100 | > 100 | > 100 | > 100 | > 100 | > 100 | > 100 | > 100 | > 100 | > 100 | > 100 | > 100 | – | – | –
CCCCCCCCCCCCn1[nH]c(C)c(C(=S)SCCCCCCCC)c1=O | > 100 | > 100 | > 100 | > 100 | > 35.7 | > 100 | > 100 | > 100 | > 100 | > 62 | 64.6 | > 100 | > 78.3 | > 88.1 | > 100 | > 100 | > 100 | – | – | –
CCc1cccc(CC)c1NC(=O)C1=C(C)NC(C)=C(C(=O)Nc2c(CC)cccc2CC)C1c1ccc2c(c1)OCO2 | 42.9 | 31.1 | 35 | 33 | > 100 | 27.2 | 35.9 | 30.5 | 36.5 | 31.5 | 25.6 | 28.7 | 20.3 | 34.7 | 28.6 | 29.2 | 38.1 | – | – | –
CCCCCCCCCCCC(=O)c1c(O)cccc1O | 37.6 | 33.3 | 32 | 26.7 | 68.5 | 33.2 | 30.4 | 48.5 | 30 | 33.5 | 34.3 | 34.7 | 62.8 | 33.5 | 42.9 | 31.4 | 31.9 | – | – | –
CN(C)CC1(Cc2ccccc2)CCC(Cc2ccccc2)C1=O (centres undefined) | 31 | 23.9 | 26.6 | 27.4 | 6.84 | 7.59 | 22.6 | 32.4 | 20.9 | 11.1 | 32.5 | 23.9 | 12.5 | 18.2 | 30.6 | 31.2 | 30 | 48.9 | 23.8 | 24.3
COc1cc(C)c(C)c(OC(=O)c2c(C)c(C)c(OC)c(C)c2OC)c1C | > 100 | 33.9 | > 100 | 22.7 | 81.5 | 4.71 | 56.2 | 19.6 | 50.9 | 36 | > 100 | > 100 | 62 | > 100 | 20.4 | 38.6 | 36 | – | – | –
C/C(CC(=O)NC1=CC=C(NC(=O)C/C(C)=N\Nc2ccccc2)CC1)=N/Nc1ccccc1 | > 100 | > 100 | > 100 | > 100 | > 100 | > 100 | > 100 | > 100 | > 100 | – | > 100 | > 100 | > 100 | > 100 | > 100 | > 100 | > 100 | – | – | –
O=S(=O)(O)c1cc(N=Nc2cc(S(=O)(=O)O)c3cccnc3c2O)ccc1/C=C/c1ccc(N=Nc2cc(S(=O)(=O)O)c3cccnc3c2O)cc1S(=O)(=O)O | > 100 | > 100 | > 100 | > 100 | > 100 | > 100 | > 100 | > 100 | > 100 | > 100 | > 100 | > 100 | 52.5 | > 100 | > 100 | > 100 | > 100 | > 100 | > 100 | > 100
CC(C(=O)c1ccc(Cl)cc1)C1OC(=O)C(Cl)=C1Cl (centres undefined) | 64.6 | > 100 | 57.1 | > 100 | 70.8 | 37.7 | > 100 | > 100 | > 100 | > 100 | 46.7 | 56.3 | 41.4 | > 100 | > 100 | > 100 | > 100 | – | – | –
CSc1nc2c(c(O)c(C)c(=O)n2C2OCC(OC(C)=O)C(OC(C)=O)C2OC(C)=O)c(=O)n1C (centres undefined) | > 100 | > 100 | > 100 | > 100 | > 100 | > 100 | > 100 | > 100 | > 100 | > 100 | > 100 | > 100 | > 100 | > 100 | > 100 | > 100 | > 100 | – | – | –
CCN(CC)Cc1cc(Nc2c3ccccc3nc3c4ccccc4n(C)c23)ccc1O | 27.4 | 3.68 | 15.3 | 6.6 | 15.3 | 6.39 | 52.4 | 17.3 | 23.9 | 18.6 | 17.2 | 27.5 | 6.44 | 15.6 | 24.5 | 21.8 | 27.3 | – | – | –
